Assay results reported in patent publication US5220018A, “Cholecystokinin antagonists” (Merck & Co., Inc., priority 1992, dated 1993).
Read-outs that look alike come from different tables or passages of the source.

Columns and labels:
CCK Receptor (Brain) = target: T1, CCK Receptor (Brain) (Cavia porcellus, UniProt H0VZC5); test: CCK Receptor Binding (Brain), inhibition of 125I-CCK-8 binding; set-up: species or system Male Hartley guinea pigs
T1 construct: the cortex was removed and homogenized in 25 mL ice-cold 0.32M sucrose; from tissue; host or cells: guinea pig cerebral cortex, P2 membrane pellet
T1 sequence (H0VZC5 1-426): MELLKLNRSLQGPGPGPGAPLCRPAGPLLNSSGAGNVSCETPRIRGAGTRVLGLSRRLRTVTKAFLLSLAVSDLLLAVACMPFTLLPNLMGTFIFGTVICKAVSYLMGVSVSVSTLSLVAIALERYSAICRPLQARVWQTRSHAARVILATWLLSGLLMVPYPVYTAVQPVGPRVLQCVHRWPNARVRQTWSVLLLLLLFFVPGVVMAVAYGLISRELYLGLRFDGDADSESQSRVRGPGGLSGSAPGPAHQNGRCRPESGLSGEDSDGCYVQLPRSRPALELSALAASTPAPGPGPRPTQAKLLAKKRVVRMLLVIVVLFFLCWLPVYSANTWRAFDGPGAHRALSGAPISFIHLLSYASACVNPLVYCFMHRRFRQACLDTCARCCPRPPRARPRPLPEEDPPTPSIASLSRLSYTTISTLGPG
Method: 2. CCK Receptor Binding (Brain)
CCK-8 sulphated was radiolabelled and the binding was performed according to the description for the pancreas method with minor modifications.
Male Hartley guinea pigs (300-500 g) were sacrificed by decapitation and the cortex was removed and homogenized in 25 mL ice-cold 0.32M sucrose. The homogenates were centrifuged at 1000 g for 10 minutes and the resulting supernatant was recentrifuged at 20,000 g for 20 minutes. […] All assays were run in duplicate. The reaction mixtures were incubated at 25° C. for 2 hours and then the reaction was terminated on Whatman GF/C filters by rapid filtration (Brandell 24 well cell Harvester) with 3×5 ml washes of cold 100 mM NaCl. The radioactivity on the filters was then counted with a LKB gamma counter.
(§1) Drug displacement studies were performed with at least 10 concentrations of compounds of formula 1 and the IC50 values were determined by regression analysis.

Gastrin Receptor = target: T2, Gastrin Receptor (Cavia porcellus, UniProt H0VZC5); test: Gastrin Receptor Binding in Guinea Pig Gastric Glands; set-up: species or system guinea pigs
T2 construct: from tissue; host or cells: guinea pig gastric mucosal glands (collagenase-dispersed)
T2 sequence (H0VZC5 1-426): T1 sequence (H0VZC5 1-426)
Method: Gastrin antagonist activity of compounds of Formula I is determined using the following assay.
A. Gastrin Receptor Binding in Guinea Pig Gastric Glands
Preparation of guinea pig gastric mucosal glands
Guinea pig gastric mucosal glands were prepared by the procedure of Chang et al., Science 230, 177-179 (1985) with slight modification. Gastric mucosa from guinea pigs (300-500 g body weight, male Hartley) were isolated by scraping with a glass slide after washing stomachs in ice-cold, aerated buffer consisting of the following: 130 mM NaCl, 12 mM NaHCO3, 3 mM NaH2 PO4, 3 mM Na2 HPO4, 3 mM K2 HPO4, 2 mM MgSO4, 1 mM CaCl2, 5 mM glucose and 4 mM L-glutamine, 50 mM HEPES, 0.25 mg/ml bacitracin, 0.10 mg/ml soya bean trypsin inhibitor, 0.1 mg/ml bovine serum albumin, at pH 6.5, and then incubated in a 37° C. shaking water bath for 40 minutes in buffer containing 1 mg/ml collagenase and bubbled with 95% O2 and 5% CO2. The tissues were passed twice through a 5 ml syringe to liberate the gastric glands, and then filtered through Nitex #202 gauge nylon mesh. The filtered glands were centrifuged at 272 g for 5 minutes and washed twice by resuspension in 25 ml buffer and centrifugation.
The washed guinea pig gastric glands prepared as above were resuspended in 25 ml of standard buffer. […] The radioactivity on the filters was measured using a LKB gamma counter.

CCK Receptor (Pancreas) = target: T3, CCK Receptor (Pancreas) (Rattus norvegicus, UniProt P30551); test: biochemical; format: binding, Male Sprague-Dawley rats
T3 construct: The whole pancreas was dissected free of fat tissue and was homogenized; from tissue; host or cells: rat whole pancreas, homogenate membranes
T3 sequence (P30551 1-444): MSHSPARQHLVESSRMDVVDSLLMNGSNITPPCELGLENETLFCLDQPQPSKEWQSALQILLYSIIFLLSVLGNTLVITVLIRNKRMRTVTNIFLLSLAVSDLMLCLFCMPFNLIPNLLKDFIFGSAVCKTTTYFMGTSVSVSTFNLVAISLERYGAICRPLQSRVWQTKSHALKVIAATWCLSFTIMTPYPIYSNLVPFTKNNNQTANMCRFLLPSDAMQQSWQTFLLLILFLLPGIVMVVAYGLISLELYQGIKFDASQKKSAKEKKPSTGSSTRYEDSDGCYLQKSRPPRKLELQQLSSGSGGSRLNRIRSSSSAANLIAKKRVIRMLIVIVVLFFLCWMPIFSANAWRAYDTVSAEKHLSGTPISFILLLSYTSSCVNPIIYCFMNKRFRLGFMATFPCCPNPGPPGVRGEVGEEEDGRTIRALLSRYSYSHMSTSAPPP
Method: 1. CCK Receptor Binding (Pancreas)
CCK-8 sulphated was radiolabelled with ^125 I-Bolton Hunter reagent (2000 Ci/mmole). Receptor binding was performed according to Chang and Lotti (Proc. Natl. Acad. Sci. 83, 4923-4926, 1986) with minor modifications.
Male Sprague-Dawley rats (150-200 g) were sacrificed by decapitation. The whole pancreas was dissected free of fat tissue and was homogenized in 25 volumes of ice-cold 10 mM Hepes buffer with 0.1% soya bean trypsin inhibitor (pH 7.4 at 25° C.) with a Kinematica Polytron. The homogenates were centrifuged at 47,800 g for 10 min. Pellets were resuspended in 10 volumes of binding assay buffer (20 mM Hepes, 1 mM EGTA, 5 mM MgCl2, 150 mM NaCl, bacitracin 0.25 mg/ml, soya bean trypsin inhibitor 0.1 mg/ml, and bovine serum albumin 2 mg/ml, pH 6.5 at 25° C.) using a teflon homogenizer, 15 strokes at 500 rpm. The homogenate was further diluted in binding assay buffer to give a final concentration of 0.5 mg original wet weight/1 ml buffer. […] All assays were run in duplicate. The reaction mixtures were incubated at 25° C. for 2 hours and the reaction terminated by rapid filtration (Brandell 24 well cell harvester) over Whatman GF/C filters, washing 3×4 mls with ice-cold 100 mM NaCl. The radioactivity on the filters was counted with a LKB gamma counter.
as §1

[1] = rat pancreas membranes, 125I-CCK-8 50 pM, 25° C., 2 hours, read-out: IC50, 125I-CCK Pancreas
[2] = guinea pig cortex membranes, 125I-CCK-8 50 pM, 25° C., 2 hours, read-out: IC50, 125I-CCK Brain

Row | Structure (SMILES) | IC50 (CCK Receptor (Brain)) [nM] | IC50 (Gastrin Receptor) [nM] | IC50 (CCK Receptor (Pancreas); [1]) [nM] | IC50 (CCK Receptor (Brain); [2]) [nM] | IC50 (Gastrin Receptor; guinea pig gastric glands, method: 125I-gastrin 0.1 nM, 25° C., 30 minutes, read-out: IC50, 125I-CCK Gastric Glands) [nM] | IC50 (CCK Receptor (Pancreas)) [nM]
1 | CN1C(=O)[C@H](NC(=O)Nc2cccc(-c3nnn[nH]3)c2)N=C(c2ccccc2)c2ccccc21 [Example 1, N-{1,3-Dihydro-1-methyl-2-oxo-5-phenyl-1H-1,4-benzodiazepin-3-yl}-N'-{[3-(1H-tetrazol-5-yl)phenyl]urea}] | 1 | 0.7 | 400 | – | – | –
2 | CN1C(=O)[C@H](NC(=O)Nc2cccc(B(O)O)c2)N=C(c2ccccc2)c2ccccc21 [Example 15, N-{1,3-Dihydro-1-methyl-2-oxo-5-phenyl-1H-1,4-benzodiazepin-3-yl}-N'-{[3-phenylboronyl]urea}] | – | – | 420 | 9.6 | – | –
3 | CN1C(=O)[C@H](NC(=O)Nc2cccc(C(=O)NS(=O)(=O)C(C)(C)C)c2)N=C(c2ccccc2)c2ccccc21 [Example 25, N-{1,3-Dihydro-1-methyl-2-oxo-5-phenyl-1H-1,4-benzodiazepin-3-yl}-N'-{[3-(N-(t-butylsulfonyl)carboxamido)phenyl]urea}] | – | – | > 3000 | 0.38 | – | –
4 | CC(C)N1C(=O)C(NC(=O)Nc2cccc(-c3nnn[nH]3)c2)N=C(c2ccccc2)c2ccccc21 (stereo not shown) [Example 4, N-{1,3-Dihydro-1-[2-propyl]-2-oxo-5-phenyl-1H-1,4-benzodiazepin-3-yl}-N'-{[3-(1H-tetrazol-5-yl)phenyl]urea}] | – | – | 200 | 4.1 | – | –
5 | CC(C)CN1C(=O)[C@H](NC(=O)Nc2cccc(-c3nnn[nH]3)c2)N=C(c2ccccc2)c2ccccc21 [Example 2, N-{1,3-Dihydro-1-[2-methyl]propyl-2-oxo-5-phenyl-1H-1,4-benzodiazepin-3-yl}-N'-{[3-(1H-tetrazol-5-yl)phenyl]urea}] | – | – | 1400 | 0.1 | 0.24 | –
6 | CN1C(=O)[C@H](NC(=O)Nc2cccc(Cc3nnn[nH]3)c2)N=C(c2ccccc2)c2ccccc21 [Example 17, N-{1,3-Dihydro-1-methyl-2-oxo-5-phenyl-1H-1,4-benzodiazepin-3-yl}-N'-{[3-((1H-tetrazol-5-yl)methyl)phenyl]urea}] | – | – | 1800 | 4.8 | – | –
7 | CN1C(=O)[C@H](NC(=O)Nc2ccc(Cl)nc2)N=C(c2ccccc2)c2ccccc21 [Example 5, N-{1,3-Dihydro-1-methyl-2-oxo-5-phenyl-1H-1,4-benzodiazepin-3-yl}-N'-{[5-(2-chloro)pyridyl]urea}] | 46 | – | > 3000 | – | – | –
8 | CN1C(=O)[C@H](NC(=O)Nc2cccc(/C=C/C(=O)O)c2)N=C(c2ccccc2)c2ccccc21 [Example 32, N-{1,3-Dihydro-1-methyl-2-oxo-5-phenyl-1H-1,4-benzodiazepin-3-yl}-N'-{[3-(trans-carboxyethylene)phenyl]urea}] | – | – | 12 | 8.9 | – | –
9 | CC(=O)NC(=O)c1cccc(NC(=O)N[C@@H]2N=C(c3ccccc3)c3ccccc3N(C)C2=O)c1 [Example 22, N-{1,3-Dihydro-1-methyl-2-oxo-5-phenyl-1H-1,4-benzodiazepin-3-yl}-N'-{[3-(N-acetylcarboxamido)phenyl]urea}] | – | – | 3800 | 55 | – | –
10 | CN1C(=O)[C@H](NC(=O)Nc2cccc(S(=O)(=O)NC(=O)NC(C)(C)C)c2)N=C(c2ccccc2)c2ccccc21 [Example 30, N-{1,3-Dihydro-1-methyl-2-oxo-5-phenyl-1H-1,4-benzodiazepin-3-yl}-N'-{[3-(N-(t-butylaminocarbonyl)sulfonamido)phenyl]urea}] | – | – | > 3000 | 14 | – | –
11 | CN1C(=O)[C@H](NC(=O)Nc2cccc(-c3noc(=O)[nH]3)c2)N=C(c2ccccc2)c2ccccc21 [Example 34, N-{1,3-Dihydro-1-methyl-2-oxo-5-phenyl-1H-1,4-benzodiazepin-3-yl}-N'-{[3-(1,2,4-oxadiazol-5-one)phenyl]urea}] | – | – | 1100 | 0.19 | – | –
12 | COc1ccc(NC(=O)N[C@@H]2N=C(c3ccccc3)c3ccccc3N(C)C2=O)cn1 [Example 6, N-{1,3-Dihydro-1-methyl-2-oxo-5-phenyl-1H-1,4-benzodiazepin-3-yl}-N'-{[5-(2-methoxy)pyridyl]urea}] | – | – | 2000 | 48 | – | –
13 | CCN1C(=O)C(NC(=O)Nc2cccc(-c3nnn[nH]3)c2)N=C(c2ccccc2)c2ccccc21 (stereo not shown) [Example 3, N-{1,3-Dihydro-1-ethyl-2-oxo-5-phenyl-1H-1,4-benzodiazepin-3-yl}-N'-{[3-(1H-tetrazol-5-yl)phenyl]urea}] | – | – | – | 1.6 | – | 29
14 | CC(=O)c1cccc(NC(=O)N[C@@H]2N=C(c3ccccc3)c3ccccc3N(C)C2=O)c1 [Example 8, N-{1,3-Dihydro-1-methyl-2-oxo-5-phenyl-1H-1,4-benzodiazepin-3-yl}-N'-{[3-(acetyl)phenyl]urea}] | – | – | 1200 | 3.6 | – | –
15 | CN1C(=O)[C@H](NC(=O)Nc2cccc(S(=O)(=O)NC(=O)C3CC3(C)C)c2)N=C(c2ccccc2)c2ccccc21 (stereo partly shown) [Example 29, N-{1,3-Dihydro-1-methyl-2-oxo-5-phenyl-1H-1,4-benzodiazepin-3-yl}-N'-{[3-(N-(2,2-dimethylcyclopropylcarbonyl)sulfonamido)phenyl]urea}] | – | – | > 3000 | 11 | – | –
16 | CC[C@H](C)CN1C(=O)[C@H](NC(=O)Nc2cccc(-c3nnn[nH]3)c2)N=C(c2ccccc2)c2ccccc21 [Example 19, N-{1,3-Dihydro-1-[2-(S)-methylbutyl]-2-oxo-5-phenyl-1H-1,4-benzodiazepin-3-yl}-N'-{[3-(1H-tetrazol-5-yl)phenyl]urea}] | – | – | 500 | 0.25 | – | –
